Legend:
[1] = Oral dose PK of NPT2042 in dog (AUC for absolute bioavailability); assay type: in vivo; conditions: dog
Method: Assays were performed to determine absolute bioavailability of NPT2042 in two species: dog and rat. The calculation of absolute bioavailability depends on four inputs: the areas under the curves (AUC) for oral and IV, and the oral and IV doses.
Testing was conducted to determine AUCs for an oral dose in dog.
Two dogs were each dosed 30 mg/kg NPT2042 orally, on two different days.

Rat Microsomes = assay: Metabolite screening of NPT-2042 in rat microsomes; assay type: in vitro ADME; conditions: NPT-2042 10 uM, microsomes 1 mg/mL, 1 hour, NADPH regenerating system
Method: (§1) Incubation of Test Compound in Microsomes • 1. Compound final concentration: 10 uM. • 2. Microsomes concentration 1 mg/mL. • 3. Incubate for 1 hour, with an NADPH regenerating system. • 4. 0.5 mL of incubation mixture at 0 min and 1 hour, mixed with 0.5 mL of acetonitrile. • 5. Vortex, and centrifuge at 13200 rpm for 10 min. • 6. Supernatant was transferred to a clean vial for LCMS analysis NADPH regenerating system (cofactor; consisting of NADP [0.340 mg/mL], G6P [1.56 mg/mL], and G6PDH [0.4 U/mL] solutions) LC-MS/MS Method: • HPLC Column: Agilent, Polaris 3 […], 150×2.0 mm (S/N: 533819), made in Netherlands. • Guard Column: Agilent, MonoChrom 3 C18 MetaGuard, 10×2.0 mm (S/N: 556145) • Column temperature: 40° C. • Mobile Phase A: 5 mM ammonium format in water (Optima) • Mobile Phase B: acetonitrile (Optima) • Flow rate: 0.2 mL/min • Gradient (Table on right) • MS: Thermo Q Exactive Plus.

Microsomes = assay: Proposed metabolite structures and biotransformation pathways (rat, dog, human microsomes); assay type: in vitro ADME; conditions: for Proposed Biotransformation Pathway: metabolite of NPT-2042 in microsomes
Method: Incubation of Test Compound in Microsomes • 1. Compound final concentration: 10 uM. • 2. Microsomes concentration 1 mg/mL. • 3. Incubate for 1 hour, with an NADPH regenerating system. • 4. 0.5 mL of incubation mixture at 0 min and 1 hour, mixed with 0.5 mL of acetonitrile. • 5. Vortex, and centrifuge at 13200 rpm for 10 min. • 6. Supernatant was transferred to a clean vial for LCMS analysis NADPH regenerating system (cofactor; consisting of NADP [0.340 mg/mL], G6P [1.56 mg/mL], and G6PDH [0.4 U/mL] solutions)
LC-MS/MS Method: • HPLC Column: Agilent, Polaris 3 C18-A, 150×2.0 mm (S/N: 533819), made in Netherlands. • Guard Column: Agilent, MonoChrom 3 C18 MetaGuard, 10×2.0 mm (S/N: 556145) • Column temperature: 40° C. • Mobile Phase A: 5 mM ammonium format in water (Optima) • Mobile Phase B: acetonitrile (Optima) • Flow rate: 0.2 mL/min • Gradient (Table on right) • MS: Thermo Q Exactive Plus.
Summary of Proposed Metabolite Structures and Biotransformation Pathway

Dog Microsomes = assay: Metabolite screening of NPT-2042 in dog microsomes; assay type: in vitro ADME; conditions: NPT-2042 10 uM, microsomes 1 mg/mL, 1 hour, NADPH regenerating system
Method: as §1

Human Microsomes = assay: Metabolite screening of NPT-2042 in human microsomes; assay type: in vitro ADME; conditions: NPT-2042 10 uM, microsomes 1 mg/mL, 1 hour, NADPH regenerating system
Method: as §1

[2] = elderly, population-based control study; cited from earlier work
[3] = dose level 30 mg/kg NPT2042, Table 4
[4] = dose level 30 mg/kg NPT2042, Table 5

For `CCCCNc1cc(C(=O)O)cc(S(N)(=O)=O)c1Oc1ccccc1` [Bumetanide, bumetanide, reference compound], the “Bumetanide concentration, Time 0.50 h” value [1, 3] was “BQL”, the “Bumetanide concentration, Time 1.00 h” value [1, 3] was “BQL” and the “Bumetanide concentration, Time 2.00 h” value [1, 3] was “BQL”. For the same compound, the “Bumetanide concentration, Time 4.00 h” value [1, 3] was “BQL”, the “Bumetanide concentration, Time 6.00 h” value [1, 3] was “BQL” and the “Bumetanide concentration, Time 8.00 h” value [1, 3] was “BQL”. For the same compound, the “Bumetanide concentration, Time 12.00 h” value [1, 3] was “BQL”, the “Bumetanide concentration, Time 24.00 h” value [1, 3] was “BQL” and the “Bumetanide concentration, Time 0.50 h” value [1, 4] was “BQL”. The “Bumetanide concentration, Time 1.00 h” value [1, 4] was “BQL”, the “Bumetanide concentration, Time 2.00 h” value [1, 4] was “BQL” and the “Bumetanide concentration, Time 4.00 h” value [1, 4] was “BQL”. For the same compound, the “Bumetanide concentration, Time 6.00 h” value [1, 4] was “BQL”, the “Bumetanide concentration, Time 8.00 h” value [1, 4] was “BQL” and the “Bumetanide concentration, Time 12.00 h” value [1, 4] was “BQL”. The “Bumetanide concentration, Time 24.00 h” value [1, 4] was “BQL”.
In the case of `Nc1cc(C(=O)NCc2ccccc2)cc(S(N)(=O)=O)c1Oc1ccccc1` [Example M1], the “Rat Mic (MS Intensity)” value (Rat Microsomes) is reported as 1.28E+07, the “Proposed Biotransformation Pathway” value (Microsomes) is reported as “De-alkylations” and the “Dog Mic (MS Intensity)” value (Dog Microsomes) is reported as 2.95E+06. The “Human Mic (MS Intensity)” value (Human Microsomes) was 1.42E+06.
In the case of `Nc1cc(C(=O)N(Cc2ccccc2)Cc2ccccc2)cc(S(N)(=O)=O)c1Oc1ccccc1` [Example M4], the “Rat Mic (MS Intensity)” value (Rat Microsomes) is reported as 6.53E+07, the “Proposed Biotransformation Pathway” value (Microsomes) is reported as “De-alkylation” and the “Dog Mic (MS Intensity)” value (Dog Microsomes) is reported as 3.11E+07. The “Human Mic (MS Intensity)” value (Human Microsomes) was 2.52E+07.
With `CCCCNc1cc(C(=O)NCc2ccccc2)cc(S(N)(=O)=O)c1Oc1ccccc1` [Example M6] the “Rat Mic (MS Intensity)” value (Rat Microsomes) was 7.96E+07, the “Proposed Biotransformation Pathway” value (Microsomes) was “De-alkylation” and the “Dog Mic (MS Intensity)” value (Dog Microsomes) was 4.12E+07. The “Human Mic (MS Intensity)” value (Human Microsomes) was 3.25E+07.
In the case of `O=C(O)Cc1ccccc1Nc1c(Cl)cccc1Cl` [diclofenac, reference compound], the “Metabolism of positive control” value (Microsomes; microsome incubation) is reported as “showed Phase I metabolism”.
In the case of `NS(=O)(=O)c1cc(C(=O)O)c(NCc2ccco2)cc1Cl` [furosemide], the “Protective factor for the development of epilepsy” value [2] is listed as 39%.
